Data reported in PubChem BioAssay (NCI).
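Results reflect a 48-hour exposure of cells in 96-well plates to compound at five concentrations. TGI denotes the concentration required for complete inhibition of growth.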

How the values were obtained:
Test in all cases: DTP human tumour cell line panel, 48 h
SF-539 CNS = test system: SF-539 CNS
HT29 colon = test system: HT29 colon
OVCAR-3 ovarian = test system: OVCAR-3 ovarian
SF-295 CNS = test system: SF-295 CNS
SK-MEL-5 melanoma = test system: SK-MEL-5 melanoma
U251 CNS = test system: U251 CNS
SK-OV-3 ovarian = test system: SK-OV-3 ovarian
IGROV1 ovarian = test system: IGROV1 ovarian
HS 578T breast = test system: HS 578T breast
RXF 393 renal = test system: RXF 393 renal
RPMI-8226 leukemia = test system: RPMI-8226 leukemia
786-0 renal = test system: 786-0 renal
M14 melanoma = test system: M14 melanoma
CAKI-1 renal = test system: CAKI-1 renal
SW-620 colon = test system: SW-620 colon
NCI/ADR-RES ovarian = test system: NCI/ADR-RES ovarian
SN12C renal = test system: SN12C renal
HCT-116 colon = test system: HCT-116 colon
K-562 leukemia = test system: K-562 leukemia
HOP-62 NSCLC = test system: HOP-62 NSCLC
T-47D breast = test system: T-47D breast
CCRF-CEM leukemia = test system: CCRF-CEM leukemia
EKVX NSCLC = test system: EKVX NSCLC
TK-10 renal = test system: TK-10 renal
MOLT-4 leukemia = test system: MOLT-4 leukemia
NCI-H460 lung = test system: NCI-H460 lung
MDA-MB-435 = test system: MDA-MB-435
SF-268 CNS = test system: SF-268 CNS
COLO 205 colon = test system: COLO 205 colon
MCF7 breast = test system: MCF7 breast
HCC-2998 colon = test system: HCC-2998 colon
HOP-92 NSCLC = test system: HOP-92 NSCLC
UACC-62 melanoma = test system: UACC-62 melanoma
KM12 colon = test system: KM12 colon
OVCAR-8 ovarian = test system: OVCAR-8 ovarian
OVCAR-4 ovarian = test system: OVCAR-4 ovarian
MDA-MB-231 breast = test system: MDA-MB-231 breast
MDA-N = test system: MDA-N
DU-145 prostate = test system: DU-145 prostate
NCI-H522 lung = test system: NCI-H522 lung
SK-MEL-2 melanoma = test system: SK-MEL-2 melanoma
HCT-15 colon = test system: HCT-15 colon
LOX IMVI melanoma = test system: LOX IMVI melanoma
A498 renal = test system: A498 renal
NCI-H226 lung = test system: NCI-H226 lung
SR leukemia = test system: SR leukemia
HL-60(TB) leukemia = test system: HL-60(TB) leukemia
ACHN renal = test system: ACHN renal
PC-3 prostate = test system: PC-3 prostate
SK-MEL-28 melanoma = test system: SK-MEL-28 melanoma
NCI-H23 lung = test system: NCI-H23 lung
OVCAR-5 ovarian = test system: OVCAR-5 ovarian
SNB-75 CNS = test system: SNB-75 CNS
UACC-257 melanoma = test system: UACC-257 melanoma
A549 NSCLC = test system: A549 NSCLC
SNB-19 CNS = test system: SNB-19 CNS
UO-31 renal = test system: UO-31 renal

Measured: TGI

Cc1cc(C)n(C(=O)CSc2nc3ccc(I)cc3c(=O)n2Cc2ccccc2)n1
66.3 µM: MDA-MB-231 breast
63.4 µM: A498 renal | SNB-75 CNS
71 µM: SF-268 CNS
44.6 µM: HS 578T breast
> 100 µM: SF-539 CNS | HT29 colon | OVCAR-3 ovarian | SF-295 CNS | SK-MEL-5 melanoma | U251 CNS | SK-OV-3 ovarian | RPMI-8226 leukemia | 786-0 renal | M14 melanoma | SW-620 colon | NCI/ADR-RES ovarian | SN12C renal | HCT-116 colon | K-562 leukemia | T-47D breast | CCRF-CEM leukemia | EKVX NSCLC | TK-10 renal | MOLT-4 leukemia | NCI-H460 lung | MDA-MB-435 | COLO 205 colon | MCF7 breast | HCC-2998 colon | UACC-62 melanoma | KM12 colon | OVCAR-4 ovarian | MDA-N | DU-145 prostate | SK-MEL-2 melanoma | HCT-15 colon | LOX IMVI melanoma | NCI-H226 lung | SR leukemia | HL-60(TB) leukemia | ACHN renal | SK-MEL-28 melanoma | NCI-H23 lung | OVCAR-5 ovarian | UACC-257 melanoma | A549 NSCLC | SNB-19 CNS
62.4 µM: RXF 393 renal
62.1 µM: NCI-H522 lung
78.8 µM: IGROV1 ovarian
63.7 µM: PC-3 prostate
70.3 µM: HOP-62 NSCLC | OVCAR-8 ovarian
22.2 µM: CAKI-1 renal
53 µM: HOP-92 NSCLC

c1ccc2c(c1)CCN2CCN1CCc2ccccc21
> 10 µM: SF-539 CNS | HT29 colon | OVCAR-3 ovarian | SF-295 CNS | SK-MEL-5 melanoma | U251 CNS | SK-OV-3 ovarian | IGROV1 ovarian | HS 578T breast | RXF 393 renal | RPMI-8226 leukemia | 786-0 renal | M14 melanoma | CAKI-1 renal | SW-620 colon | NCI/ADR-RES ovarian | SN12C renal | HCT-116 colon | K-562 leukemia | HOP-62 NSCLC | T-47D breast | CCRF-CEM leukemia | EKVX NSCLC | UO-31 renal | TK-10 renal | MOLT-4 leukemia | NCI-H460 lung | MDA-MB-435 | SF-268 CNS | COLO 205 colon | MCF7 breast | HCC-2998 colon | HOP-92 NSCLC | UACC-62 melanoma | KM12 colon | OVCAR-8 ovarian | OVCAR-4 ovarian | MDA-MB-231 breast | MDA-N | DU-145 prostate | NCI-H522 lung | SK-MEL-2 melanoma | HCT-15 colon | LOX IMVI melanoma | NCI-H226 lung | SR leukemia | HL-60(TB) leukemia | ACHN renal | PC-3 prostate | SK-MEL-28 melanoma | NCI-H23 lung | OVCAR-5 ovarian | SNB-75 CNS | UACC-257 melanoma | A549 NSCLC | SNB-19 CNS

CCOC(=O)C(NC(=O)CC)(Nc1ccccc1OC)C(F)(F)F (stereo not given)
> 100 µM: SF-539 CNS | HT29 colon | OVCAR-3 ovarian | SF-295 CNS | SK-MEL-5 melanoma | U251 CNS | SK-OV-3 ovarian | IGROV1 ovarian | HS 578T breast | RXF 393 renal | RPMI-8226 leukemia | M14 melanoma | CAKI-1 renal | SW-620 colon | NCI/ADR-RES ovarian | SN12C renal | HCT-116 colon | K-562 leukemia | T-47D breast | CCRF-CEM leukemia | EKVX NSCLC | UO-31 renal | TK-10 renal | MOLT-4 leukemia | NCI-H460 lung | MDA-MB-435 | SF-268 CNS | COLO 205 colon | MCF7 breast | HCC-2998 colon | HOP-92 NSCLC | UACC-62 melanoma | KM12 colon | OVCAR-8 ovarian | OVCAR-4 ovarian | MDA-MB-231 breast | MDA-N | DU-145 prostate | NCI-H522 lung | SK-MEL-2 melanoma | HCT-15 colon | LOX IMVI melanoma | SR leukemia | HL-60(TB) leukemia | ACHN renal | PC-3 prostate | SK-MEL-28 melanoma | NCI-H23 lung | OVCAR-5 ovarian | SNB-75 CNS | UACC-257 melanoma | A549 NSCLC | SNB-19 CNS
